The text below walks through data of patent US10828301B2, “2,4-pyrimidinediamine compounds and their uses” (Rigel Pharmaceuticals, Inc, priority 2002, dated 2020).

Holding throughout (type): cell-based
Assay [1] concerns bone marrow derived mast cells (BMMC). Kind of assay: BMMC high cell density IgE activation: degranulation (hexosiminidase, histamine), leukotriene (LTC4) and cytokine (TNFalpha, IL-6) assays. The conditions noted are these: Mus musculus, anti-IgE activation. The protocol:
After sensitizing, cells are counted, pelleted (1000 rpm, 5-10 minutes), and resuspended at 1-3×10^6 cells/ml in MT buffer. Add 100 ul of cell suspension to each well and 100 ul of compound dilutions. The final vehicle concentration is 0.5% DMSO. Incubate at 37° C. (5% CO2) for 1 hour. After 1 hour of compound treatment, stimulate cells with 6× stimulus (60 ng/ml DNP-BSA). Mix wells with the cells and allow plates to incubate at 37° C. (5% CO2) for one hour. After 1 hour incubation, pellet cells (10 minutes, 1000 RPM) and collect 200 ul per well of the supernatant, being careful not to disturb pellet, and transfer to a clean tube or 96-well plate. Place the supernatant plate on ice. During the 4-5 hour step (see next) perform the hexosiminidase assay. Resuspend cell pellet in 240 ul WEI-conditioned media containing 0.5% DMSO and corresponding concentration of compound. Incubate BMMC cells for 4-5 hours at 37° C. (5% CO2). After incubation, pellet cells (1000 RPM, 10 minutes) and collect 225 ul per well and place in −80° C. until ready to perform ELISAS. ELISAS are performed on appropriately diluted samples (determined empirically for each donor cell population so that the sample measurement falls within the standard curve) following the supplier's instructions.
Add 50 uL of BMMC cell supernatant (see above) to the hexoseaminidase substrate, place at 37° C. for 30 minutes and read the plate at 5, 10, 15, and 30 minutes on a spectrophotometer.

The test system of assay [2] is cultured human mast cells (CHMC). Put plainly: CHMC low cell density IgE activation: tryptase and LTC4 assays. The conditions noted are these: Homo sapiens, Mast cell, Low Density CHMC, anti-IgE activation. A digest of the protocol: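 Cultured human mast cells at low density (1000-1500 per well) rested 1 h at 37° C, then stimulated with anti-IgE for 30 min at 37° C. Supernatant tryptase measured with fluorogenic substrate (30 min, room temperature); LTC4 quantified by ELISA on diluted supernatant.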

Assay [3] deals with ionophore-induced degranulation of mast and/or basophil cells. Kind of assay: Ionophore (ionomycin or A23187)-induced degranulation counter screen. Particulars: high density BMMC, ionomycin activation, hexosaminidase release, read-out: BMMC Ionomycin Hexos. IC50. An excerpt:
In addition to the FcεRI or FcγRI degranulation pathways discussed above, degranulation of mast and/or basophil cells can be induced by other agents. For example, ionomycin, a calcium ionophore that bypasses the early FcεRI or FcγRI signal transduction machinery of the cell, directly induces a calcium flux that triggers degranulation. Referring again to FIG. 2, activated PLCγ initiates pathways that lead to, among other things, calcium ion mobilization and subsequent degranulation. As illustrated, this Ca^2+ mobilization is triggered late in the FcεRI signal transduction pathway. […] Other ionophores that induce degranulation in this manner include A23187. The ability of granulation-inducing ionophores such as ionomycin to bypass the early stages of the FcεRI and/or FcγRI signaling cascades may be used as a counter screen to identify active compounds of the invention that specifically exert their degranulation-inhibitory activity by blocking or inhibiting the early FcεRI or FcγRI signaling cascades, as discussed above.
Assays suitable for determining the IC50 of ionophore-induced degranulation include any of the previously-described degranulation assays, with the modification that the cells are stimulated or activated with a degranulation-inducing calcium ionophore such as ionomycin or A23187 (A.G. Scientific, San Diego, Calif.) instead of anti-IgE antibodies or an IgE-specific allergen. Specific assays for assessing the ability of a particular 2,4-pyrimidinediamine compound of the invention to inhibit ionophore-induced degranulation are provided in the Examples section.

The subject of assay [4] is cultured human mast cells (CHMC). Put plainly: CHMC low cell density ionomycin activation: tryptase assay. The conditions noted are these: Homo sapiens, Mast cell, Low Density CHMC, ionomycin activation.
Assay [5] deals with basophils in whole human peripheral blood. Put plainly: Basophil ionomycin activation: histamine release assay. The protocol:
Assays for ionomycin-induced basophil cell degranulation were carried out as described for the Basophil IgE or Dustmite Activation Assay (Section 6.4.6, supra), with the exception that following incubation with compound, cells were stimulated with 20 μl of 2 μM ionomycin.

The mark [6] stands for this setting: hexosaminidase release, read-out: BMMC anti-IgE hexos IC50.
The mark [7] stands for this setting: hexosaminidase readout, read-out: CHMC anti-IgE Hexos.
Setting [8] is: hexosaminidase readout, read-out: CHMC Ionomycin Hexos.

Structures are written as SMILES. Structures can show the parent of a compound that is named as a salt. Where two headings read alike, the source gives them in different places.

`CCOc1cccc(Nc2ncc(F)c(Nc3cccc(OCC)c3)n2)c1` [Compound R926064, N2,N4-Bis(3-ethoxyphenyl)-5-fluoro-2,4-pyrimidinediamine]: the IC50 was determined as 5.9 µM in assay [1] (setting [6]), 6.2 µM in assay [2] (setting [7]) and 7.3 µM in assay [3] (Mus musculus).

Take `COc1cccc(Nc2ncc(F)c(Nc3cccc(OC)c3)n2)c1` [Compound R926065, N2,N4-Bis(3-methoxyphenyl)-5-fluoro-2,4-pyrimidinediamine]: the values for the IC50 in assay [1] (setting [6]), in assay [2] (setting [7]) and in assay [3] (Mus musculus) were greater than 10 µM, 3.5 µM and greater than 10 µM, respectively.

`CCOc1ccc(Nc2ncc(C)c(Nc3ccc(OCC)cc3)n2)cc1` [Compound R926068, N2,N4-Bis(4-ethoxyphenyl)-5-methyl-2,4-pyrimidinediamine]: the IC50 is 7.4 µM in assay [1] (setting [6]), greater than 10 µM in assay [2] (setting [7]) and 8.2 µM in assay [3] (Mus musculus).

`CCOc1ccc(Nc2ccnc(Nc3ccc(OCC)cc3)n2)cc1` [Compound R926069, N2,N4-Bis(4-ethoxyphenyl)-2,4-pyrimidinediamine]: the IC50 worked out at 4.5 µM in assay [1] (setting [6]), 9.1 µM in assay [2] (setting [7]) and 4.4 µM in assay [3] (Mus musculus).

Turning to `CCOc1ccc(Nc2cc(Cl)nc(Nc3ccc(OCC)cc3)n2)cc1` [Compound R926072, N2,N4-Bis(4-ethoxyphenyl)-6-chloro-2,4-pyrimidinediamine], the IC50 in assay [1] (setting [6]), in assay [2] (setting [7]) and in assay [3] (Mus musculus) was greater than 10 µM each time.

In the case of `Fc1cnc(Nc2ccc(N3CCOCC3)cc2)nc1Nc1ccc(N2CCOCC2)cc1` [Compound R926114, N2,N4-Bis[4-(N-morpholino)phenyl]-5-fluoro-2,4-pyrimidinediamine], the IC50 in assay [3] is greater than 10 µM.

For the molecule `CCOc1ccc(Nc2ncc(F)c(Nc3ccc(OC)c(OC)c3)n2)cc1` [Compound R926145, N4-(3,4-Dimethoxyphenyl)-N2-(4-ethoxyphenyl)-5-fluoro-2,4-pyrimidinediamine], the IC50 in assay [1] (setting [6]) is 2.4 µM; in assay [2] (setting [7]), 4.76 µM; in assay [3] (Mus musculus), 8.8 µM; in assay [4] (setting [8]), greater than 10 µM.

Consider `COc1ccc(Nc2nc(Nc3cccc(O)c3)ncc2F)cc1OC` [Compound R926147, N4-(3,4-Dimethoxyphenyl)-5-fluoro-N2-(3-hydroxyphenyl)-2,4-pyrimidinediamine], for which the IC50 in assay [1] (setting [6]) was 2 µM; in assay [2] (setting [7]), 1.9 µM; in assay [3] (Mus musculus), 7.1 µM; in assay [4] (setting [8]), greater than 10 µM.

As to `Fc1ccc(Nc2ncc(F)c(Nc3ccc4c(c3)OCCO4)n2)cc1Cl` [Compound R926218, N2-(3-Chloro-4-fluorophenyl)-N4-(3,4-ethylenedioxyphenyl)-5-fluoro-2,4-pyrimidinediamine], the IC50 in assay [1] (setting [6]), in assay [2] (setting [7]) and in assay [3] (Mus musculus) was greater than 10 µM throughout.

Turning to `CC(C)(C)c1ccc(Nc2ncc(F)c(Nc3ccc4c(c3)OCCO4)n2)cc1` [Compound R926219, N2-(4-tert-Butylphenyl)-N4-(3,4-ethylenedioxyphenyl)-5-fluoro-2,4-pyrimidinediamine], the IC50 in assay [1] (setting [6]) stood at 2.5 µM; in assay [2] (setting [7]), 1.1 µM; in assay [3] (Mus musculus), 3.2 µM; in assay [4] (setting [8]), 6.7 µM.

As for `Fc1ccc(Nc2ncc(F)c(Nc3ccc4c(c3)OCCO4)n2)cc1` [Compound R926220, N4-(3,4-Ethylenedioxyphenyl)-N2-(4-fluorophenyl)-5-fluoro-2,4-pyrimidinediamine], the IC50 in assay [1] (setting [6]), in assay [2] (setting [7]) and in assay [3] (Mus musculus) was greater than 10 µM in each case.

For the molecule `Fc1cccc(Nc2ncc(F)c(Nc3ccc4c(c3)OCCO4)n2)c1` [Compound R926221, N4-(3,4-Ethylenedioxyphenyl)-N2-(3-fluorophenyl)-5-fluoro-2,4-pyrimidinediamine], the IC50 in assay [1] (setting [6]) is 9.9 µM; in assay [2] (setting [7]), 8.5 µM; in assay [3] (Mus musculus), greater than 10 µM.

Consider `CC(C)(C)c1ccc(Nc2ncc(F)c(Nc3ccc(C(C)(C)C)cc3)n2)cc1` [Compound R926222, N2,N4-Bis(4-tert-butylphenyl)-5-fluoro-2,4-pyrimidinediamine], for which the IC50 in assay [1] (setting [6]), in assay [2] (setting [7]) and in assay [3] (Mus musculus) was greater than 10 µM in each case.

On to `Fc1ccc(Nc2ncc(F)c(Nc3ccc(F)c(Cl)c3)n2)cc1Cl` [Compound R926223, N2,N4-Bis(3-chloro-4-fluorophenyl)-5-fluoro-2,4-pyrimidinediamine], for which the IC50 in assay [1] (setting [6]), in assay [2] (setting [7]) and in assay [3] (Mus musculus) was greater than 10 µM throughout.

Regarding `Fc1ccc(Nc2ncc(F)c(Nc3ccc(F)cc3)n2)cc1` [Compound R926224, N2,N4-Bis(4-fluorophenyl)-5-fluoro-2,4-pyrimidinediamine], the IC50 in assay [1] (setting [6]), in assay [2] (setting [7]) and in assay [3] (Mus musculus) was greater than 10 µM each time.

For `Cc1ccc(Nc2ncc(F)c(Nc3ccc(C)cc3)n2)cc1` [Compound R926225, N2,N4-Bis(4-methylphenyl)-5-fluoro-2,4-pyrimidinediamine], the IC50 in assay [1] (setting [6]), in assay [2] (setting [7]) and in assay [3] (Mus musculus) was greater than 10 µM each time.

The molecule `O=C(c1cc2cc(Nc3ncc(F)c(Nc4ccc5c(c4)OCCO5)n3)ccc2o1)N1CCNCC1` [Compound R926501, N4-(3,4-Ethylenedioxyphenyl)-5-fluoro-N2-[2-(N-piperazino)carbonylbenzofuran-5-yl]-2,4-pyrimidinediamine Hydrogen Chloride Salt] registered an IC50 in assay [5] greater than 10 µM.

The molecule `O=C(c1cc2cc(Nc3ncc(F)c(Nc4cccc(O)c4)n3)ccc2o1)N1CCNCC1` [Compound R926502, 5-Fluoro-N4-(3-hydroxyphenyl)-N2-[2-(N-piperazino)carbonylbenzofuran-5-yl]-2,4-pyrimidinediamine Hydrogen Chloride Salt] registered an IC50 in assay [5] greater than 10 µM.

On to `CC(C)Oc1ccc(Nc2nc(Nc3ccc(OCCO)cc3)ncc2F)cc1` [Compound R935160, 5-Fluoro-N2-[4-(2-hydroxyethoxy)phenyl]-N4-(4-isopropoxyphenyl)-2,4-pyrimidinediamine], for which the IC50 in assay [1] (IL-6 release, read-out: BMMC anti-IgE IL-6 IC50) is less than 0.22 µM; in assay [1] (LTC4 release, read-out: BMMC anti-IgE LTC4 IC50), 0.876 µM; in assay [1] (TNF-alpha release, read-out: BMMC anti-IgE TNF-alpha IC50), 0.484 µM; in assay [1] (setting [6]), less than 0.22 µM; in assay [1] (histamine release, read-out: BMMC anti-IgE histamine IC50), 0.317 µM; in assay [2] (tryptase readout, read-out: CHMC anti-IgE Tryptase), 0.202 µM. Moreover, the IC50 in assay [4] (tryptase readout, read-out: CHMC Ionomycin Tryptase) was greater than 10 µM.
